Test results reported in patent US10287619B2, “Measurement method for dehydrogenase and substrate concentration thereof, electron mediator, and measurement reagent for dehydrogenase including said electron mediator and for substrate thereof” (Dojindo Laboratories, priority 2014, dated 2019).

Tests used:
[1] = tested on: Human myeloid leukemia cells (HL60); assay: Evaluation of electron transfer with living cells (WST-8 formazan formation); assay type: cell-based; conditions: HL60 25,000 to 0 cells/well; WST-8 500 μM, electron mediator 10 μM; 37° C. for 3 hours; FIG. 3A-3D
Method: Examples of the evaluation of the electron transfer between the electron mediators and the living cells are shown. For comparison, a similar experiment was carried out using 1-Methoxy PMS, a known electron mediator that carries out electron transfer with the living cells. Human myeloid leukemia cells (HL60) were seeded on a 96 well microplate at 25,000 to 0 cells/well, the measurement reagent was added at a final concentration shown below, after reacting at 37° C. for 3 hours and absorbance at 450 nm was measured. Final concentration of the measurement reagent: WST-8 (500 μM), the electron mediator (10 μM).

[2] = tested on: Chinese Hamster Ovarian (CHO) cells; assay: Cytotoxicity assay using LDH leaked out of the dead cells as an index; assay type: cell-based; conditions: comparison of the IC50 obtained with the electron mediator of the invention (FIG. 5A) and with the commercial LDH-Cytotoxicity Assay Kit (FIG. 5B); MMC 1 mM to 0.0001 mM, 20 hours
Method: The example of the cytotoxicity assay using the LDH leaked out of the dead cell as an index and the solutions of the chromogenic reagent prepared using the electron mediator according to the present invention is shown. As a model of the cytotoxicity assay, cytotoxicity of mitomycin C (MMC) against Chinese Hamster Ovarian (CHO) cells was assayed.
A suspension of the CHO cells at the concentration of 1.5×10^5 cells/mL was prepared using serum-containing medium and 100 μL of the suspension was seeded to each well of a 96 well microplate. After incubating at 37° C. for 4 hours in a CO2 incubator, 10 μL of MMC was added at final concentration of 1 mM to 0.0001 mM. The microplate was incubated at 37° C. for 20 hours in the CO2 incubator. […] After incubating at 37° C. for 20 minutes in a CO2 incubator, the absorbance at 450 nm was measured using a microplate reader.
A comparative experiment using a commercially available dead cell assay kit (BioPioneer Inc., LDH-Cytotoxicity Assay Kit) using LDH as an index. […] The measurement method of the absorbance was similar to that as mentioned above except that supernatant of the medium was taken and transferred to another plate so as not to be contaminated with the living cells upon conducting the chromogenic reaction.

SMILES	formation of the formazan attributed to the living cells (absorbance at 450 nm) [1]	50% Inhibition concentration (IC50) against the CHO cell [2]
COS(=O)(=O)[O-].COc1cccc2c1nc1ccccc1[n+]2C [1-Methoxy PMS, 1-methoxy phenazine methosulfate]	increasing of absorbance	–
CO[C@@]12[C@H](COC(N)=O)C3=C(C(=O)C(C)=C(N)C3=O)N1C[C@@H]1N[C@@H]12 [mitomycin C]	–	No difference was observed
